ChEMBL document CHEMBL3044736, “Synthesis, characterization, solvatochromic properties, and antimicrobial evaluation of 5-acetyl-2-thioxo-dihydro-pyrimidine-4,6-dione-based chalcones” (2013)
Values after ≈ are worked out from the molar mass of the structure shown.

Key:
Assay type in all cases: functional
Penicillium [1] = test: Antimicrobial activity against Penicillium wild strain assessed as diameter of growth inhibition zone at 250 ug/ml after 48-96 hr by agar cup diffusion method; settings: read-out: DIZ
Penicillium [2] = test: Antimicrobial activity against Penicillium wild strain assessed as diameter of growth inhibition zone at 100 ug/ml after 48-96 hr by agar cup diffusion method; settings: read-out: DIZ
Trichophyton rubrum [3] = test: Antimicrobial activity against Trichophyton rubrum MTCC 296 assessed as diameter of growth inhibition zone at 100 ug/ml after 48-96 hr by agar cup diffusion method; settings: read-out: DIZ
Aspergillus clavatus [4] = test: Antimicrobial activity against Aspergillus clavatus MTCC 1323 assessed as diameter of growth inhibition zone at 100 ug/ml after 48-96 hr by agar cup diffusion method; settings: read-out: DIZ
Candida albicans [5] = test: Antimicrobial activity against Candida albicans MTCC 227 assessed as diameter of growth inhibition zone at 100 ug/ml after 48-96 hr by agar cup diffusion method; settings: read-out: DIZ
Penicillium [6] = test: Antimicrobial activity against Penicillium wild strain assessed as diameter of growth inhibition zone at 50 ug/ml after 48-96 hr by agar cup diffusion method; settings: read-out: DIZ
Trichophyton rubrum [7] = test: Antimicrobial activity against Trichophyton rubrum MTCC 296 assessed as diameter of growth inhibition zone at 50 ug/ml after 48-96 hr by agar cup diffusion method; settings: read-out: DIZ
Aspergillus clavatus [8] = test: Antimicrobial activity against Aspergillus clavatus MTCC 1323 assessed as diameter of growth inhibition zone at 50 ug/ml after 48-96 hr by agar cup diffusion method; settings: read-out: DIZ
Candida albicans [9] = test: Antimicrobial activity against Candida albicans MTCC 227 assessed as diameter of growth inhibition zone at 50 ug/ml after 48-96 hr by agar cup diffusion method; settings: read-out: DIZ
Penicillium [10] = test: Antimicrobial activity against Penicillium wild strain assessed as diameter of growth inhibition zone at 25 ug/ml after 48-96 hr by agar cup diffusion method; settings: read-out: DIZ
Trichophyton rubrum [11] = test: Antimicrobial activity against Trichophyton rubrum MTCC 296 assessed as diameter of growth inhibition zone at 25 ug/ml after 48-96 hr by agar cup diffusion method; settings: read-out: DIZ
Aspergillus clavatus [12] = test: Antimicrobial activity against Aspergillus clavatus MTCC 1323 assessed as diameter of growth inhibition zone at 25 ug/ml after 48-96 hr by agar cup diffusion method; settings: read-out: DIZ
Candida albicans [13] = test: Antimicrobial activity against Candida albicans MTCC 227 assessed as diameter of growth inhibition zone at 25 ug/ml after 48-96 hr by agar cup diffusion method; settings: read-out: DIZ
Penicillium [14] = test: Antimicrobial activity against Penicillium wild strain by agar cup diffusion method
Aspergillus clavatus [15] = test: Antimicrobial activity against Aspergillus clavatus MTCC 1323 by agar cup diffusion method
Pseudomonas aeruginosa [16] = test: Antimicrobial activity against Pseudomonas aeruginosa MTCC 1688 assessed as diameter of growth inhibition zone at 25 ug/ml after 18-24 hr by agar cup diffusion method; settings: read-out: DIZ
Escherichia coli [17] = test: Antimicrobial activity against Escherichia coli MTCC 443 assessed as diameter of growth inhibition zone at 25 ug/ml after 18-24 hr by agar cup diffusion method; settings: read-out: DIZ
Staphylococcus aureus [18] = test: Antimicrobial activity against Staphylococcus aureus MTCC 96 assessed as diameter of growth inhibition zone at 25 ug/ml after 18-24 hr by agar cup diffusion method; settings: read-out: DIZ
Streptococcus pyogenes [19] = test: Antimicrobial activity against Streptococcus pyogenes MTCC 442 assessed as diameter of growth inhibition zone at 25 ug/ml after 18-24 hr by agar cup diffusion method; settings: read-out: DIZ
Klebsiella pneumoniae [20] = test: Antimicrobial activity against Klebsiella pneumoniae MTCC 109 by agar cup diffusion method
Escherichia coli [21] = test: Antimicrobial activity against Escherichia coli MTCC 443 by agar cup diffusion method
Pseudomonas aeruginosa [22] = test: Antimicrobial activity against Pseudomonas aeruginosa MTCC 1688 by agar cup diffusion method
Staphylococcus aureus [23] = test: Antimicrobial activity against Staphylococcus aureus MTCC 96 by agar cup diffusion method
Streptococcus pyogenes [24] = test: Antimicrobial activity against Streptococcus pyogenes MTCC 442 by agar cup diffusion method
Trichophyton rubrum [25] = test: Antimicrobial activity against Trichophyton rubrum MTCC 296 by agar cup diffusion method
Candida albicans [26] = test: Antimicrobial activity against Candida albicans MTCC 227 by agar cup diffusion method
Klebsiella pneumoniae [27] = test: Antimicrobial activity against Klebsiella pneumoniae MTCC 109 assessed as diameter of growth inhibition zone at 250 ug/ml after 18-24 hr by agar cup diffusion method; settings: read-out: DIZ
Pseudomonas aeruginosa [28] = test: Antimicrobial activity against Pseudomonas aeruginosa MTCC 1688 assessed as diameter of growth inhibition zone at 250 ug/ml after 18-24 hr by agar cup diffusion method; settings: read-out: DIZ
Escherichia coli [29] = test: Antimicrobial activity against Escherichia coli MTCC 443 assessed as diameter of growth inhibition zone at 250 ug/ml after 18-24 hr by agar cup diffusion method; settings: read-out: DIZ
Staphylococcus aureus [30] = test: Antimicrobial activity against Staphylococcus aureus MTCC 96 assessed as diameter of growth inhibition zone at 250 ug/ml after 18-24 hr by agar cup diffusion method; settings: read-out: DIZ
Streptococcus pyogenes [31] = test: Antimicrobial activity against Streptococcus pyogenes MTCC 442 assessed as diameter of growth inhibition zone at 250 ug/ml after 18-24 hr by agar cup diffusion method; settings: read-out: DIZ
Klebsiella pneumoniae [32] = test: Antimicrobial activity against Klebsiella pneumoniae MTCC 109 assessed as diameter of growth inhibition zone at 100 ug/ml after 18-24 hr by agar cup diffusion method; settings: read-out: DIZ
Pseudomonas aeruginosa [33] = test: Antimicrobial activity against Pseudomonas aeruginosa MTCC 1688 assessed as diameter of growth inhibition zone at 100 ug/ml after 18-24 hr by agar cup diffusion method; settings: read-out: DIZ
Escherichia coli [34] = test: Antimicrobial activity against Escherichia coli MTCC 443 assessed as diameter of growth inhibition zone at 100 ug/ml after 18-24 hr by agar cup diffusion method; settings: read-out: DIZ
Staphylococcus aureus [35] = test: Antimicrobial activity against Staphylococcus aureus MTCC 96 assessed as diameter of growth inhibition zone at 100 ug/ml after 18-24 hr by agar cup diffusion method; settings: read-out: DIZ
Streptococcus pyogenes [36] = test: Antimicrobial activity against Streptococcus pyogenes MTCC 442 assessed as diameter of growth inhibition zone at 100 ug/ml after 18-24 hr by agar cup diffusion method; settings: read-out: DIZ
Klebsiella pneumoniae [37] = test: Antimicrobial activity against Klebsiella pneumoniae MTCC 109 assessed as diameter of growth inhibition zone at 50 ug/ml after 18-24 hr by agar cup diffusion method; settings: read-out: DIZ
Pseudomonas aeruginosa [38] = test: Antimicrobial activity against Pseudomonas aeruginosa MTCC 1688 assessed as diameter of growth inhibition zone at 50 ug/ml after 18-24 hr by agar cup diffusion method; settings: read-out: DIZ
Escherichia coli [39] = test: Antimicrobial activity against Escherichia coli MTCC 443 assessed as diameter of growth inhibition zone at 50 ug/ml after 18-24 hr by agar cup diffusion method; settings: read-out: DIZ
Staphylococcus aureus [40] = test: Antimicrobial activity against Staphylococcus aureus MTCC 96 assessed as diameter of growth inhibition zone at 50 ug/ml after 18-24 hr by agar cup diffusion method; settings: read-out: DIZ
Streptococcus pyogenes [41] = test: Antimicrobial activity against Streptococcus pyogenes MTCC 442 assessed as diameter of growth inhibition zone at 50 ug/ml after 18-24 hr by agar cup diffusion method; settings: read-out: DIZ
Klebsiella pneumoniae [42] = test: Antimicrobial activity against Klebsiella pneumoniae MTCC 109 assessed as diameter of growth inhibition zone at 25 ug/ml after 18-24 hr by agar cup diffusion method; settings: read-out: DIZ
Trichophyton rubrum [43] = test: Antimicrobial activity against Trichophyton rubrum MTCC 296 assessed as diameter of growth inhibition zone at 250 ug/ml after 48-96 hr by agar cup diffusion method; settings: read-out: DIZ
Aspergillus clavatus [44] = test: Antimicrobial activity against Aspergillus clavatus MTCC 1323 assessed as diameter of growth inhibition zone at 250 ug/ml after 48-96 hr by agar cup diffusion method; settings: read-out: DIZ
Candida albicans [45] = test: Antimicrobial activity against Candida albicans MTCC 227 assessed as diameter of growth inhibition zone at 250 ug/ml after 48-96 hr by agar cup diffusion method; settings: read-out: DIZ

`Cc1ccc(/C=C/C(=O)C2C(=O)NC(=S)NC2=O)cc1` was tested, and the zone of inhibition at 250 µg/mL (Penicillium [1]) was 22 mm, the zone of inhibition at 100 µg/mL (Penicillium [2]) was 19 mm and the zone of inhibition at 100 µg/mL (Trichophyton rubrum [3]) was 22 mm. For the same compound, the zone of inhibition at 100 µg/mL (Aspergillus clavatus [4]) was 22 mm, the zone of inhibition at 100 µg/mL (Candida albicans [5]) was 21 mm and the zone of inhibition at 50 µg/mL (Penicillium [6]) was 18 mm. It also gave a zone of inhibition at 50 µg/mL (Trichophyton rubrum [7]) of 20 mm, a zone of inhibition at 50 µg/mL (Aspergillus clavatus [8]) of 22 mm and a zone of inhibition at 50 µg/mL (Candida albicans [9]) of 20 mm. For the same compound, the zone of inhibition at 25 µg/mL (Penicillium [10]) was 18 mm, the zone of inhibition at 25 µg/mL (Trichophyton rubrum [11]) was 19 mm and the zone of inhibition at 25 µg/mL (Aspergillus clavatus [12]) was 21 mm. For the same compound, the zone of inhibition at 25 µg/mL (Candida albicans [13]) was 19 mm, the MFC (Penicillium [14]) was > 1000 µg/mL and the MIC (Penicillium [14]) was > 1000 µg/mL. The MFC (Aspergillus clavatus [15]) was > 1000 µg/mL, the MIC (Aspergillus clavatus [15]) was > 1000 µg/mL and the zone of inhibition at 25 µg/mL (Pseudomonas aeruginosa [16]) was 10 mm. The zone of inhibition at 25 µg/mL (Escherichia coli [17]) was 15 mm, the zone of inhibition at 25 µg/mL (Staphylococcus aureus [18]) was 10 mm and the zone of inhibition at 25 µg/mL (Streptococcus pyogenes [19]) was 15 mm. The MBC (Klebsiella pneumoniae [20]) was 100 µg/mL (≈ 347 µM), the MIC (Klebsiella pneumoniae [20]) was 100 µg/mL (≈ 347 µM) and the MBC (Escherichia coli [21]) was 200 µg/mL (≈ 694 µM). For the same compound, the MIC (Escherichia coli [21]) was 100 µg/mL (≈ 347 µM), the MBC (Pseudomonas aeruginosa [22]) was 500 µg/mL (≈ 1730 µM) and the MIC (Pseudomonas aeruginosa [22]) was 250 µg/mL (≈ 867 µM). For the same compound, the MBC (Staphylococcus aureus [23]) was 125 µg/mL (≈ 434 µM), the MIC (Staphylococcus aureus [23]) was 125 µg/mL (≈ 434 µM) and the MBC (Streptococcus pyogenes [24]) was 200 µg/mL (≈ 694 µM). For the same compound, the MIC (Streptococcus pyogenes [24]) was 250 µg/mL (≈ 867 µM), the MFC (Trichophyton rubrum [25]) was > 1000 µg/mL and the MIC (Trichophyton rubrum [25]) was > 1000 µg/mL. The MFC (Candida albicans [26]) was > 1000 µg/mL, the MIC (Candida albicans [26]) was 1000 µg/mL (≈ 3470 µM) and the zone of inhibition at 250 µg/mL (Klebsiella pneumoniae [27]) was 17 mm. For the same compound, the zone of inhibition at 250 µg/mL (Pseudomonas aeruginosa [28]) was 17 mm, the zone of inhibition at 250 µg/mL (Escherichia coli [29]) was 19 mm and the zone of inhibition at 250 µg/mL (Staphylococcus aureus [30]) was 17 mm. For the same compound, the zone of inhibition at 250 µg/mL (Streptococcus pyogenes [31]) was 19 mm, the zone of inhibition at 100 µg/mL (Klebsiella pneumoniae [32]) was 15 mm and the zone of inhibition at 100 µg/mL (Pseudomonas aeruginosa [33]) was 16 mm. For the same compound, the zone of inhibition at 100 µg/mL (Escherichia coli [34]) was 18 mm, the zone of inhibition at 100 µg/mL (Staphylococcus aureus [35]) was 16 mm and the zone of inhibition at 100 µg/mL (Streptococcus pyogenes [36]) was 18 mm. It also gave a zone of inhibition at 50 µg/mL (Klebsiella pneumoniae [37]) of 14 mm, a zone of inhibition at 50 µg/mL (Pseudomonas aeruginosa [38]) of 12 mm and a zone of inhibition at 50 µg/mL (Escherichia coli [39]) of 15 mm. For the same compound, the zone of inhibition at 50 µg/mL (Staphylococcus aureus [40]) was 12 mm, the zone of inhibition at 50 µg/mL (Streptococcus pyogenes [41]) was 15 mm and the zone of inhibition at 25 µg/mL (Klebsiella pneumoniae [42]) was 12 mm. The zone of inhibition at 250 µg/mL (Trichophyton rubrum [43]) was 25 mm, the zone of inhibition at 250 µg/mL (Aspergillus clavatus [44]) was 25 mm and the zone of inhibition at 250 µg/mL (Candida albicans [45]) was 24 mm.
